Test [1] deals with HLA-DQ8 (Homo sapiens, UniProt P01909+P01920, A209T/A45G/C70Q/D89A/DUP78-78/E183D/E77G/F237L/G63E/H199R/I129T/K197E/L178F/L74F/L98V/Q57E/Q76R/S185I/S97I/T217I/T49S/V73L/Y58L). Kind of test: MHC II/peptide competition binding assay, HLA-DQ8. Here is the method:
(§1) One skilled in the art would appreciate that the 15-mers used included shorter de-epitoped high molecular weight glutenin peptide sequences (mutated repeating antigenic units), as described throughout. For example, Table 2 provides a listing of 15-mers and the shorter mutated repeating antigenic units present therein. […] MHC II molecules were purified by affinity chromatography, and peptides were radiolabeled using the chloramine T method. After an incubation period, the bound and unbound radiolabeled species were separated, and their relative amounts were determined by either size-exclusion gel-filtration chromatography or monoclonal antibody capture of MHC. The percent of bound radioactivity was then determined.

In test [2] the target is HLA-DQ2.5 (Homo sapiens, UniProt P01909+P01920, A45G/A70V/D89A/E106A/E77G/E98D/H199R/L107V/N214S/P84L/P87L/T103K/T109R/T172A/T60S/V78E/V99I/Y58L/Y62S/Y69I/Y79F). Kind of test: MHC II/peptide competition binding assay, HLA-DQ2.5. Here is the method: as §1
Test [3] addresses HLA-DQ7.5 (Homo sapiens, UniProt P01909+P01920). Description: MHC II/peptide competition binding assay, HLA-DQ7.5. Here is the method: The peptides were synthesized as purified material on the 2 mg scale with free acid C-termini (A&A labs, USA). One skilled in the art would appreciate that the 15-mers used included shorter de-epitoped high molecular weight glutenin peptide sequences (mutated repeating antigenic units), as described throughout. For example, Table 2 provides a listing of 15-mers and the shorter mutated repeating antigenic units present therein.
Briefly, competition assays using different concentrations of wild-type (WT) and modified glutenin peptides were conducted by diluting the peptides in NP40 buffer, and incubation for 2-4 days with purified MHC II and a radiolabeled known MHC binding peptide (peptide probe). MHC II molecules were purified by affinity chromatography, and peptides were radiolabeled using the chloramine T method. After an incubation period, the bound and unbound radiolabeled species were separated, and their relative amounts were determined by either size-exclusion gel-filtration chromatography or monoclonal antibody capture of MHC. The percent of bound radioactivity was then determined.

For test [4], the target named is HLA-DQ2.2 (Homo sapiens, UniProt P01909+P01920, A45G/A70V/C70K/D167G/D89A/E106A/E183D/E77G/E98D/F237L/F77L/G63E/H199R/I129T/K197E/L107V/L178F/L74F/N214S/P84L/P87L/Q57E/Q76R/R75H/S185I/S97I/T103K/T109R/T172A/T60S/V73L/V78E/V99I/Y48F/Y58L/Y62S/Y69I/Y79F). Kind of test: MHC II/peptide competition binding assay, HLA-DQ2.2. The settings on record: Table 3; 15-mer peptides; >40000 signifies binding is undetectable by assay. The procedure: as §1

The target in test [5] is HLA-DQ2.5. Kind of test: MHC II competition binding assay (purified MHC II, radiolabeled probe peptide as competitor).
The mark [6] stands for this setting: Table 3, 15-mer peptides, >40000 signifies binding is undetectable by assay.

Read-outs that look alike come from different tables or passages of the source. Residues, ends and D or L forms follow the SMILES beside them. No end group written: not given here.

Broadly, the IC50 is the midpoint of a concentration-inhibition curve. The low end stands for higher potency, the high end for lower potency.

For `C[C@@H](O)[C@H](NC(=O)[C@@H]1CCCN1C(=O)[C@H](Cc1ccc(O)cc1)NC(=O)[C@H](Cc1ccc(O)cc1)NC(=O)CNC(=O)[C@H](CCC(N)=O)NC(=O)[C@H](CCC(N)=O)NC(=O)CNC(=O)[C@@H](N)CCC(N)=O)C(=O)N[C@@H](CO)C(=O)N1CCC[C@H]1C(=O)N[C@@H](CCC(N)=O)C(=O)N[C@@H](CCC(N)=O)C(=O)N[C@@H](CO)C(=O)NCC(=O)O` [P1a, reference compound] (H-QGQQGYYPTSPQQSG-OH; N-terminus assumed), the IC50 in test [1] (setting [6]) worked out at 14.2 µM; in test [2] (setting [6]), 29.8 µM.
The like results for `C[C@@H](O)[C@H](NC(=O)[C@@H]1CCCN1C(=O)[C@H](Cc1ccc(O)cc1)NC(=O)[C@H](Cc1ccc(O)cc1)NC(=O)CNC(=O)[C@H](CCC(=O)O)NC(=O)[C@H](CCC(N)=O)NC(=O)CNC(=O)[C@@H](N)CCC(N)=O)C(=O)N[C@@H](CO)C(=O)N1CCC[C@H]1C(=O)N[C@@H](CCC(=O)O)C(=O)N[C@@H](CCC(N)=O)C(=O)N[C@@H](CO)C(=O)NCC(=O)O` [P1b, reference compound] (H-QGQEGYYPTSPEQSG-OH; N-terminus assumed) were, in that order, 3.76 µM and 3.29 µM.
`C[C@H](NC(=O)CNC(=O)[C@@H](N)CCC(N)=O)C(=O)N[C@@H](C)C(=O)NCC(=O)N[C@@H](Cc1ccc(O)cc1)C(=O)N[C@@H](Cc1ccc(O)cc1)C(=O)N1CCC[C@H]1C(=O)N[C@H](C(=O)N[C@@H](CO)C(=O)N1CCC[C@H]1C(=O)N[C@@H](CCCNC(=N)N)C(=O)N[C@@H](CCC(N)=O)C(=O)N[C@@H](CO)C(=O)NCC(=O)O)[C@@H](C)O` [P1c] (H-QGAAGYYPTSPRQSG-OH): the IC50 is above 40 µM in test [1] (setting [6]), above 40 µM in test [2] (setting [6]) and 19.9 µM in test [3] (setting [6]).
For the molecule `C[C@@H](O)[C@H](NC(=O)[C@@H]1CCCN1C(=O)[C@H](CC(=O)O)NC(=O)[C@H](Cc1ccc(O)cc1)NC(=O)CNC(=O)[C@H](CO)NC(=O)[C@H](CCC(N)=O)NC(=O)CNC(=O)[C@@H](N)CCC(N)=O)C(=O)N[C@@H](CO)C(=O)N1CCC[C@H]1C(=O)N[C@H](C(=O)N[C@@H](CCC(N)=O)C(=O)N[C@@H](CO)C(=O)NCC(=O)O)[C@@H](C)O` [P1d] (H-QGQSGYDPTSPTQSG-OH), the IC50 in test [1] (setting [6]), in test [2] (setting [6]), in test [4] and in test [3] (setting [6]) was above 40 µM in each case.
Take `C[C@@H](O)[C@H](NC(=O)[C@@H]1CCCN1C(=O)[C@H](Cc1ccc(O)cc1)NC(=O)[C@H](Cc1ccc(O)cc1)NC(=O)[C@H](CCCNC(=N)N)NC(=O)[C@@H]1CCCN1C(=O)[C@H](CCC(N)=O)NC(=O)CNC(=O)[C@@H](N)CCC(N)=O)C(=O)N[C@@H](CO)C(=O)N1CCC[C@H]1C(=O)N[C@@H](CCCNC(=N)N)C(=O)N[C@@H](CCC(N)=O)C(=O)N[C@@H](CO)C(=O)NCC(=O)O` [P1e] (H-QGQPRYYPTSPRQSG-OH): the IC50 in test [1] (setting [6]) came out at 32.5 µM; in test [2] (setting [6]) it was 33.2 µM; in test [3] (setting [6]), 19.4 µM.
Take `CC(C)C[C@H](NC(=O)[C@H](CO)NC(=O)[C@@H](NC(=O)[C@@H]1CCCN1C(=O)[C@H](Cc1ccc(O)cc1)NC(=O)[C@H](Cc1ccc(O)cc1)NC(=O)CNC(=O)[C@H](Cc1c[nH]cn1)NC(=O)[C@H](CCC(N)=O)NC(=O)CNC(=O)[C@@H](N)CCC(N)=O)[C@@H](C)O)C(=O)N[C@@H](Cc1c[nH]cn1)C(=O)N[C@@H](CCC(N)=O)C(=O)N[C@@H](CO)C(=O)NCC(=O)O` [P1f] (H-QGQHGYYPTSLHQSG-OH): the IC50 in test [1] (setting [6]), in test [2] (setting [6]), in test [4] and in test [3] (setting [6]) was above 40 µM each time.
For the molecule `C[C@H](NC(=O)[C@@H]1CCCN1C(=O)CNC(=O)[C@H](CCCNC(=N)N)NC(=O)CNC(=O)[C@H](CCC(=O)O)NC(=O)[C@H](CCC(N)=O)NC(=O)CNC(=O)[C@@H](N)CCC(N)=O)C(=O)N[C@@H](CO)C(=O)N1CCC[C@H]1C(=O)N[C@@H](CCCNC(=N)N)C(=O)N[C@@H](CCC(N)=O)C(=O)N[C@@H](CO)C(=O)NCC(=O)O` [SEQ ID NO: 145] (H-QGQEGRGPASPRQSG-OH), in test [3], the IC50 was above 40 µM.
In the case of `CC(C)C[C@H](NC(=O)[C@H](CO)NC(=O)[C@@H](NC(=O)[C@@H]1CCCN1C(=O)[C@H](CC(=O)O)NC(=O)[C@H](Cc1ccc(O)cc1)NC(=O)CNC(=O)[C@H](Cc1c[nH]cn1)NC(=O)[C@H](CCC(N)=O)NC(=O)CNC(=O)[C@@H](N)CCC(N)=O)[C@@H](C)O)C(=O)N[C@@H](CCC(=O)O)C(=O)N[C@@H](CCC(N)=O)C(=O)N[C@@H](CO)C(=O)NCC(=O)O` [SEQ ID NO: 173] (H-QGQHGYDPTSLEQSG-OH; N-terminus assumed), the IC50 is above 40 µM in test [1] and 15.9 µM in test [2].
Turning to `C[C@H](NC(=O)[C@@H]1CCCN1C(=O)CNC(=O)[C@H](Cc1c[nH]cn1)NC(=O)CNC(=O)[C@H](CCC(=O)O)NC(=O)[C@H](CCC(N)=O)NC(=O)CNC(=O)[C@@H](N)CCC(N)=O)C(=O)N[C@@H](CO)C(=O)N1CCC[C@H]1C(=O)N1CCC[C@H]1C(=O)N[C@@H](CCC(N)=O)C(=O)N[C@@H](CO)C(=O)NCC(=O)O` [SEQ ID NO: 175] (H-QGQEGHGPASPPQSG-OH; N-terminus assumed), the IC50 in test [1] was above 40 µM; in test [2], 22.1 µM.
Turning to `NC(=O)CC[C@H](NC(=O)CNC(=O)[C@@H](N)CCC(N)=O)C(=O)N[C@@H](CCC(=O)O)C(=O)N1CCC[C@H]1C(=O)N[C@@H](Cc1ccc(O)cc1)C(=O)NCC(=O)N1CCC[C@H]1C(=O)N[C@@H](CO)C(=O)N[C@@H](CO)C(=O)N1CCC[C@H]1C(=O)N[C@@H](CCC(=O)O)C(=O)N[C@@H](CCC(N)=O)C(=O)N[C@@H](CO)C(=O)NCC(=O)O` [SEQ ID NO: 176] (H-QGQEPYGPSSPEQSG-OH), the IC50 in test [3] was 28.6 µM.
Regarding `C[C@@H](O)[C@H](NC(=O)[C@@H]1CCCN1C(=O)CNC(=O)[C@H](Cc1ccc(O)cc1)NC(=O)CNC(=O)[C@H](CCC(=O)O)NC(=O)[C@H](CCC(N)=O)NC(=O)CNC(=O)[C@@H](N)CCC(N)=O)C(=O)N[C@@H](CO)C(=O)NCC(=O)N[C@@H](CCC(=O)O)C(=O)N[C@@H](CCC(N)=O)C(=O)N[C@@H](CO)C(=O)NCC(=O)O` [SEQ ID NO: 177] (H-QGQEGYGPTSGEQSG-OH; N-terminus assumed), the IC50 is above 40 µM in test [1] and 25.3 µM in test [2].
The like results for `C[C@@H](O)[C@H](NC(=O)[C@@H]1CCCN1C(=O)[C@H](Cc1ccc(O)cc1)NC(=O)[C@H](Cc1ccc(O)cc1)NC(=O)CNC(=O)[C@@H]1CCCN1C(=O)[C@H](CCC(N)=O)NC(=O)CNC(=O)[C@@H](N)CCC(N)=O)C(=O)N[C@@H](CO)C(=O)N1CCC[C@H]1C(=O)N[C@@H](Cc1c[nH]cn1)C(=O)N[C@@H](CCC(N)=O)C(=O)N[C@@H](CO)C(=O)NCC(=O)O` [SEQ ID NO: 178] (H-QGQPGYYPTSPHQSG-OH; N-terminus assumed) were, in that order, above 40 µM and 29.4 µM.
For `C[C@@H](O)[C@H](NC(=O)[C@@H]1CCCN1C(=O)[C@H](Cc1ccc(O)cc1)NC(=O)[C@H](Cc1ccc(O)cc1)NC(=O)CNC(=O)[C@H](CO)NC(=O)[C@H](CCC(N)=O)NC(=O)CNC(=O)[C@@H](N)CCC(N)=O)C(=O)N[C@@H](CO)C(=O)N1CCC[C@H]1C(=O)N[C@H](C(=O)N[C@@H](CCC(N)=O)C(=O)N[C@@H](CO)C(=O)NCC(=O)O)[C@@H](C)O` [SEQ ID NO: 179] (H-QGQSGYYPTSPTQSG-OH; N-terminus assumed) the same measures were above 40 µM and 29.7 µM.
Molecule QGQKGYYPTSPHQSG-OH [modified 15-mer peptide … (SEQ ID NO: 143)] came in with an IC50 in test [5] of 34.4 µM.
Same read-out and setting: with QGQEGYGPTSGEQSG-OH [modified 15-mer peptide … (SEQ ID NO: 177)] the figure was 25.3 µM; with QGQPGYYPTSPHQSG-OH [modified 15-mer peptide … (SEQ ID NO: 178)], 29.4 µM; with QGQSGYYPTSPTQSG-OH [modified 15-mer peptide … (SEQ ID NO: 179)], 29.7 µM.
For the molecule QGQHGYDPTSLEQSG-OH [modified 15-mer peptide … (SEQ ID NO: 173)], in test [5], the IC50 came to 15.9 µM.
On the same count and under the same terms, in the case of QGQEGHGPASPPQSG-OH [modified 15-mer peptide … (SEQ ID NO: 175)] it was 22.1 µM.
